Measurements reported in ChEMBL document CHEMBL1149391, “SAR and mode of action of novel non-nucleoside inhibitors of hepatitis C NS5b RNA polymerase” (J Med Chem, 2006).
Calls of active or inactive are those of the source. The calls are words filed in the database; no cut-off is given here.

Experiments:
[1] = target: RNA-directed RNA polymerase (Hepacivirus hominis, UniProt O39930); assay: Inhibitory activity against HCV delta 21 NS5b RNA polymerase
Genome polyprotein = Genome polyprotein (Bovine viral diarrhea virus (strain CP7) (BVDV) (Mucosal diseasevirus), UniProt Q96662); assay: Inhibitory activity against BVDV NS5b RNA polymerase; parameters: species or system Bovine viral diarrhea virus 1
Genome polyprotein, sequence (Q96662 3189-3907 limits assumed): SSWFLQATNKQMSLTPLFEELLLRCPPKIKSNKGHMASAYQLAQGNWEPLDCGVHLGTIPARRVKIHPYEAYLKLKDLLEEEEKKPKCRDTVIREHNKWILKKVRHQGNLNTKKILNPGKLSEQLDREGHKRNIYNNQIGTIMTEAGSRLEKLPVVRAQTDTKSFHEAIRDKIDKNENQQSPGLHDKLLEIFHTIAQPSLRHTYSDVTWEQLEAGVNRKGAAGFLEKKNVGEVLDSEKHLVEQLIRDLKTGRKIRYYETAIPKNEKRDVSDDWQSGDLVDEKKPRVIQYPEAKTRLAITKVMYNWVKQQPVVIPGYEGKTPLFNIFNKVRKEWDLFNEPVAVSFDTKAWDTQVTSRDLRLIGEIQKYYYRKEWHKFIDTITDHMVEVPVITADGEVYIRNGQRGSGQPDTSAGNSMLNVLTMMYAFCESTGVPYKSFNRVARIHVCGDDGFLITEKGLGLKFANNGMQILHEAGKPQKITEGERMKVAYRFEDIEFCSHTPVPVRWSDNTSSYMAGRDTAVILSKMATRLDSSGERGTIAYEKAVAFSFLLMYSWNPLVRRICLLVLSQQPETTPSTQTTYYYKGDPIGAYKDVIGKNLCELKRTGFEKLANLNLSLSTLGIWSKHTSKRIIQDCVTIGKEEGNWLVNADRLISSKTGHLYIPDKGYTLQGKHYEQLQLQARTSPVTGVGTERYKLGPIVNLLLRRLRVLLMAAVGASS

[2] = target: T1, Avian myoblastosis virus polyprotein II (Avian myeloblastosis virus, UniProt Q86831); assay: Inhibitory activity against AMV Reverse transcriptase
T1 sequence (Q86831 whole entry): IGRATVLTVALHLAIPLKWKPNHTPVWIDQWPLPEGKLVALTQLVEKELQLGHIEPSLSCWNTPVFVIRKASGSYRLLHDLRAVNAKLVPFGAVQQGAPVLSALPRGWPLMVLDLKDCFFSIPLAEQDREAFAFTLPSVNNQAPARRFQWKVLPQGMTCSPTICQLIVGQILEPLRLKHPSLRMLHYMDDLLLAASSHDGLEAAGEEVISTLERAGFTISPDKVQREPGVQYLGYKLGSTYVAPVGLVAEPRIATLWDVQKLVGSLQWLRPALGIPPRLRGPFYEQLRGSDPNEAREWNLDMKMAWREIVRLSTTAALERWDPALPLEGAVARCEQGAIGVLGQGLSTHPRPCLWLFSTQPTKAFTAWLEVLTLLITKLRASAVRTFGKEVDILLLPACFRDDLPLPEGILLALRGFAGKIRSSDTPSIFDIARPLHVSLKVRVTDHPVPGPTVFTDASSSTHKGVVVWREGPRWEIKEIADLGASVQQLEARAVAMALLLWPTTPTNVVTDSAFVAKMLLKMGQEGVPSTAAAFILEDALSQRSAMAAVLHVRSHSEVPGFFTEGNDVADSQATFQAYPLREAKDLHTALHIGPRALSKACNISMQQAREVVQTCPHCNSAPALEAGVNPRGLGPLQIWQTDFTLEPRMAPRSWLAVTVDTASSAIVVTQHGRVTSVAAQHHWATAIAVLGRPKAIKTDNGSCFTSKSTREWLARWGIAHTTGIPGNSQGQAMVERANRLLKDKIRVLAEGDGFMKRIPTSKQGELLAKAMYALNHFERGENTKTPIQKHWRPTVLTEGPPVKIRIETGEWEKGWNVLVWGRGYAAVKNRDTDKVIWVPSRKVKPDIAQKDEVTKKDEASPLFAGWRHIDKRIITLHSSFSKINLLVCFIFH

HFF = assay: Cytotoxicity in HFF cells; assay type: functional, cell-based; details: Homo sapiens
ECV-304 = assay: Cytotoxicity in E304 cells; assay type: functional, cell-based; details: Homo sapiens
[3] = Tmax in rat at 4.3 mg/kg, po; assay type: ADME, organism-based; parameters: dose 4.3 mg/kg, route oral; details: Sprague-Dawley, in vivo
[4] = Plasma clearance in rat at 0.86 mg/kg, iv; assay type: ADME, organism-based; parameters: dose 0.86 mg/kg, route intravenous; details: Sprague-Dawley
[5] = Cmax in rat at 4.3 mg/kg, po; assay type: ADME, organism-based; parameters: dose 4.3 mg/kg, route oral; details: Sprague-Dawley, in vivo
[6] = AUC(0-8h) in rat at 4.3 mg/kg, po; assay type: ADME, organism-based; parameters: time < 8 hr, dose 4.3 mg/kg, route oral; details: Sprague-Dawley, plasma
[7] = Half life in rat at 0.86 mg/kg, iv; assay type: ADME, organism-based; parameters: dose 0.86 mg/kg, route intravenous; details: Sprague-Dawley, in vivo
[8] = Volume of distribution in rat at 0.86 mg/kg, iv; assay type: ADME, organism-based; parameters: dose 0.86 mg/kg, route intravenous; details: Sprague-Dawley, in vivo, read-out: Vdss
[9] = Half life in rat at 0.16 mg/kg, iv; assay type: ADME, organism-based; parameters: dose 0.16 mg/kg, route intravenous; details: Sprague-Dawley, in vivo
Tubulin (Homo sapiens) = Tubulin (Homo sapiens) (UniProt P68371+Q9H4B7+P0DPH7+P68366+Q13509+Q71U36+P04350+Q3ZCM7+P07437+P68363+Q9BQE3+Q6PEY2+Q13885+Q9BVA1+Q9BUF5); assay: Effect on tubulin polymerization; assay type: functional
[10] = target: Aldo-keto reductase family 1 member B1 (Homo sapiens) (UniProt P15121); assay: Inhibition of aldose reductase
[11] = Volume of distribution in rat at 0.16 mg/kg, iv; assay type: ADME, organism-based; parameters: dose 0.16 mg/kg, route intravenous; details: Sprague-Dawley, in vivo, read-out: Vdss
[12] = Cmax in rat at 4.1 mg/kg, po; assay type: ADME, organism-based; parameters: dose 4.1 mg/kg, route oral; details: Sprague-Dawley, in vivo
[13] = Tmax in rat at 4.1 mg/kg, po; assay type: ADME, organism-based; parameters: dose 4.1 mg/kg, route oral; details: Sprague-Dawley, in vivo
[14] = Inhibition of Calpain
[15] = target: Cathepsin B (Homo sapiens) (UniProt P07858); assay: Inhibition of Cathepsin B
Homo sapiens = species on record: Homo sapiens; assay: Inhibition of human Caspase (caspase 1, caspase 3, caspase 6, caspase 7, caspase 8)
[16] = AUC(0-8h) in rat at 4.1 mg/kg, po; assay type: ADME, organism-based; parameters: time < 8 hr, dose 4.1 mg/kg, route oral; details: Sprague-Dawley, plasma
[17] = Plasma clearance in rat at 0.16 mg/kg, iv; assay type: ADME, organism-based; parameters: dose 0.16 mg/kg, route intravenous; details: Sprague-Dawley

RNA-directed RNA polymerase, sequence (O39930 whole entry): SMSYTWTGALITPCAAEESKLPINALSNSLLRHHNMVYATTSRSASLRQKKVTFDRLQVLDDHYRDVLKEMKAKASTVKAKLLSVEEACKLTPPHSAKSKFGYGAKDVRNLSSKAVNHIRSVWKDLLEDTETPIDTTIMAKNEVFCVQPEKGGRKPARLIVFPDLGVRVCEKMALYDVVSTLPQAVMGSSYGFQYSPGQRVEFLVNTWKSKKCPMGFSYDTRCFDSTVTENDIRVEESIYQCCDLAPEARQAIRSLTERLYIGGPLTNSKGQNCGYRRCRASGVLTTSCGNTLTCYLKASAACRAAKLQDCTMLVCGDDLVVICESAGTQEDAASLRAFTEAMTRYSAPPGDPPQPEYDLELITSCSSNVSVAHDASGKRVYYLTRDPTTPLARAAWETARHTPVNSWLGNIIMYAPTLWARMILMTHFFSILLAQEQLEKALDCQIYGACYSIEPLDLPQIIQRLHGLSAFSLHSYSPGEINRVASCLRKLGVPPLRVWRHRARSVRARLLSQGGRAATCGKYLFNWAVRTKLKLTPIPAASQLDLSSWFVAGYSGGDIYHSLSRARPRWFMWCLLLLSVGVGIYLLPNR

Structure (SMILES)	IC50 [1]	IC50 (HFF)	IC50 (ECV-304)	other results
O=C1/C(=C/c2ccc(Cl)cc2)SC(=S)N1NS(=O)(=O)c1ccccc1	1.5 µM	–	–	IC50 (Genome polyprotein): > 30 µM; IC50 [2]: > 30 µM
N#Cc1ccc(/C=C2\SC(=S)N(NS(=O)(=O)c3ccccc3)C2=O)cc1	0.9 µM	> 100 µM	> 50 µM	–
O=C1/C(=C/c2ccc([N+](=O)[O-])cc2)SC(=S)N1NS(=O)(=O)c1ccccc1	2 µM	> 100 µM	> 50 µM	–
CS(=O)(=O)NN1C(=O)/C(=C/c2ccc(Cl)c(Cl)c2)SC1=S	2 µM	–	–	–
C/C(=C1/SC(=S)N(NS(=O)(=O)c2ccccc2)C1=O)c1ccc(Cl)c(Cl)c1	0.6 µM	–	–	–
O=C1/C(=C/c2ccc(F)cc2)SC(=S)N1NS(=O)(=O)c1ccccc1	1 µM	> 100 µM	> 50 µM	–
Cc1ccc(/C=C2\SC(=S)N(NS(=O)(=O)c3ccccc3)C2=O)cc1C	8 µM	> 100 µM	> 50 µM	–
O=C1/C(=C/c2ccc(Cl)c(F)c2)SC(=S)N1NS(=O)(=O)c1ccccc1	1 µM	> 100 µM	> 50 µM	–
NN1C(=O)/C(=C/c2ccccc2)SC1=S	> 30 µM	–	–	–
CCN1C(=O)/C(=C/c2ccc(Cl)cc2)SC1=S	> 30 µM	–	–	–
N#Cc1ccc(/C=C2\SC(=S)N(N)C2=O)cc1	7 µM	–	–	–
O=C1/C(=C/c2cccnc2)SC(=S)N1NS(=O)(=O)c1ccccc1	15 µM	> 100 µM	> 50 µM	–
O=C1/C(=C/c2ccc3ccccc3c2)SC(=S)N1NS(=O)(=O)c1ccccc1	3 µM	> 100 µM	> 50 µM	–
O=C1C(Cc2ccc(Cl)c(Cl)c2)SC(=S)N1NS(=O)(=O)c1ccccc1 (stereo unspecified)	11 µM	–	–	–
O=C(NN1C(=O)/C(=C/c2ccc(Cl)cc2)SC1=S)c1ccccc1	> 30 µM	–	–	–
COc1cccc(/C=C2\SC(=S)N(NS(=O)(=O)c3ccccc3)C2=O)c1	5 µM	> 100 µM	> 50 µM	–
O=C1/C(=C/c2ccc(Br)cc2)SC(=S)N1NS(=O)(=O)c1ccccc1	0.7 µM	> 100 µM	> 50 µM	–
Cc1cccc(/C=C2\SC(=S)N(NS(=O)(=O)c3ccccc3)C2=O)c1	25 µM	> 100 µM	> 50 µM	–
O=C1/C(=C/c2cc(F)c(F)c(F)c2)SC(=S)N1NS(=O)(=O)c1ccccc1	1 µM	> 100 µM	> 50 µM	–
O=C1/C(=C/c2ccc(Cl)c(Cl)c2)SC(=S)N1NS(=O)(=O)c1cccs1	0.2 µM	> 100 µM	> 50 µM	Tmax [3]: 1.7 h; clearance [4]: 2.83 mL/min/kg; Cmax [5]: 3970 ng/mL; AUC(0-t) at 8 h [6]: 25600 ng·h/mL; half-life [7]: 3.3 h; Vd [8]: 0.7 L/kg
CN1C(=O)/C(=C/c2ccc(Cl)cc2)SC1=S	> 30 µM	–	–	–
O=C1/C(=C/c2cc(F)c(F)cc2F)SC(=S)N1NS(=O)(=O)c1ccccc1	0.2 µM	> 100 µM	> 50 µM	–
O=C1/C(=C/c2ccc(Cl)c(Cl)c2)SC(=S)N1NS(=O)(=O)c1ccccc1	0.2 µM	> 100 µM	> 50 µM	half-life [9]: 9.2 h; Activity (Tubulin (Homo sapiens)): inactive; Activity [10]: inactive; Vd [11]: 0.09 L/kg; Cmax [12]: 3740 ng/mL; Tmax [13]: 3.3 h; Activity [14]: inactive; Activity [15]: inactive; Activity (Homo sapiens): inactive; AUC(0-t) at 8 h [16]: 25500 ng·h/mL; clearance [17]: 0.125 mL/min/kg
CN(C)c1ccc(/C=C2\SC(=S)N(N)C2=O)cc1	> 30 µM	–	–	–

Structure (SMILES)	IC50 [1]	IC50 (HFF)	IC50 (ECV-304)	other results
O=C1/C(=C/c2ccc(F)cc2F)SC(=S)N1NS(=O)(=O)c1ccccc1	3 µM	> 100 µM	> 50 µM	–
O=C1/C(=C/c2ccc3c(c2)OCO3)SC(=S)N1NS(=O)(=O)c1ccccc1	15 µM	> 100 µM	> 50 µM	–
CN1C(=O)/C(=C/c2ccc([N+](=O)[O-])cc2)SC1=S	30 µM	–	–	–
O=C1/C(=C/c2ccccc2F)SC(=S)N1NS(=O)(=O)c1ccccc1	6.5 µM	> 100 µM	> 50 µM	–
COc1ccc(/C=C2\SC(=S)N(NS(=O)(=O)c3ccccc3)C2=O)cc1	5 µM	> 100 µM	> 50 µM	–
Cc1ccc(/C=C2\SC(=S)N(N)C2=O)cc1	> 30 µM	–	–	–
O=C1NC(=S)S/C1=C\c1ccc([N+](=O)[O-])cc1	22 µM	–	–	–
COc1ccc(/C=C2\SC(=S)N(N)C2=O)cc1	> 30 µM	–	–	–
NN1C(=O)/C(=C/c2ccc([N+](=O)[O-])cc2)SC1=S	1 µM	–	–	–
CC(/C=C1\SC(=S)N(NS(=O)(=O)c2ccccc2)C1=O)=C\c1ccccc1	0.2 µM	> 100 µM	> 50 µM	–
O=S(=O)(NN1C(=S)SC(Cc2ccc(Cl)c(Cl)c2)C1O)c1ccccc1 (stereo unspecified)	27 µM	–	–	–
O=C1/C(=C/c2cc(F)ccc2F)SC(=S)N1NS(=O)(=O)c1ccccc1	1.7 µM	> 100 µM	> 50 µM	–
NN1C(=O)/C(=C/c2ccc(F)cc2)SC1=S	7 µM	–	–	–
O=C1/C(=C/c2ccc(-c3cc(C(F)(F)F)ccc3Cl)o2)SC(=S)N1NS(=O)(=O)c1ccccc1	0.1 µM	–	–	–
O=C1/C(=C/c2ccccc2)SC(=S)N1NS(=O)(=O)c1ccccc1	30 µM	> 100 µM	> 50 µM	–
O=C1NC(=S)S/C1=C\c1ccc(Cl)cc1	> 30 µM	–	–	–
CCCCS(=O)(=O)NN1C(=O)/C(=C/c2ccc(Cl)c(Cl)c2)SC1=S	0.7 µM	–	–	–
Cc1ccc(/C=C2\SC(=S)N(NS(=O)(=O)c3ccccc3)C2=O)cc1	10 µM	> 100 µM	> 50 µM	–
O=C1/C(=C/c2ccc(Br)c(Br)c2)SC(=S)N1NS(=O)(=O)c1ccccc1	0.2 µM	> 100 µM	> 50 µM	–
O=C1/C(=C/c2ccc(C(F)(F)F)cc2)SC(=S)N1NS(=O)(=O)c1ccccc1	1 µM	> 100 µM	> 50 µM	–
NN1C(=O)/C(=C/c2ccc(Cl)cc2)SC1=S	16 µM	–	–	–
O=C1/C(=C/c2ccc(Cl)cc2)SC(=S)N1Cc1ccccc1	> 30 µM	–	–	–
O=C1/C(=C/c2ccc(F)c(F)c2F)SC(=S)N1NS(=O)(=O)c1ccccc1	1.9 µM	> 100 µM	> 50 µM	–
